In brackets after ≈: the same amount, converted by molar mass.
Tests used:
C. albicans (ATCC 90028) = test: Microdilution susceptibility assay (MIC); format: cell-based; conditions: Candida albicans, ATCC90028
Protocol: (§1) Compounds 1–10 were screened for their antimicrobial activity against gram-negative bacteria, gram-positive bacteria, and yeasts, listed in Table 1. Bacteria were grown in Mueller-Hinton Broth and yeasts were grown in Sabouraud Dextrose Broth (SDB) during experiments. Overnight cultures were prepared routinely by subculturing of stock culture onto Mueller-Hinton Agar for bacteria and Sabouraud Dextrose Agar for yeasts.
(§2) Microdilution susceptibility assay was used for the determination of antibacterial and anticandidal efficacy of compounds 1–10. Chloramphenicol and ketoconazole were used as positive controls for bacteria and yeasts, respectively. All experiments were designed according to the Clinical Laboratory Standards Institute (CLSI). All chemicals were dissolved in dimethyl sulfoxide (DMSO) to obtain stock solution (10 mg/mL). Two-fold serial dilutions (800, 400, 200...0.78 µg/mL) of the compounds were prepared from stock solutions with dH2O. 100 µL of each solution was transferred to 96-well microtiter plates and 100 µL of 10^6 CFU/mL of bacteria and 2 × 10^3 of CFU/mL yeast were added to related wells. As negative controls, wells including microorganisms without agents and wells including agents without microorganisms were used. The plates were kept at 35 °C for 18–20 h and the growth was determined with resazurin (20 mg/mL). Assays were carried out in triplicate.

E. coli (ATCC 25922) = test: Microdilution susceptibility assay (MIC); format: cell-based; conditions: Escherichia coli, ATCC25922
Protocol: as §1, §2

E. faecalis (ATCC 29212) [1] = test: Microdilution susceptibility assay (MIC); format: cell-based; conditions: Enterococcus faecalis, ATCC29212
Protocol: as §1, §2

E. faecalis (ATCC 51299) = test: Microdilution susceptibility assay (MIC); format: cell-based; conditions: Enterococcus faecalis, ATCC51299
Protocol: as §1, §2

[2] = tested on: K. pneumoniae (ATCC 700603); test: Microdilution susceptibility assay (MIC); format: cell-based; conditions: Klebsiella pneumoniae, ATCC700603
Protocol: as §1, §2

S. aureus (ATCC 25923) = test: Microdilution susceptibility assay (MIC); format: cell-based; conditions: Staphylococcus aureus, ATCC25923
Protocol: as §1, §2

C. glabrata (ATCC 90030) = test: Microdilution susceptibility assay (MIC); format: cell-based, Candida glabrata; conditions: Nakaseomyces glabratus, ATCC90030
Protocol: as §1, §2

[3] = tested on: C. parapsilosis (ATCC 22019); test: Microdilution susceptibility assay (MIC); format: cell-based, Candida parapsilosis; conditions: Lodderomyces parapsilosis, ATCC22019
Protocol: as §1, §2

C. krusei (ATCC 6258) = test: Microdilution susceptibility assay (MIC); format: cell-based, Candida krusei; conditions: Pichia kudriavzevii, ATCC6258
Protocol: as §1, §2

E. faecalis (ATCC 29212) [4] = test: ATP luminescence microbial cell viability assay; format: cell-based, Enterococcus faecalis; conditions: 24 h treatment, result in words
Protocol: (§3) A model from BioTek Instruments Inc. combined with a BacTiter-Glo^TM Microbial Cell Viability assay (Promega Corp., Madison, WI, USA) was used to provide a sensitive and rapid method for determining the number of viable microbial cells in culture based on quantitation of the ATP present. […] After incubation, cultures were added into the wells (final concentration of bacteria was 5 × 10^5 CFU/mL and 2.5 × 10^6 CFU/mL for yeasts). After adding the BacTiter reagent, incubation time for bacteria and yeasts was 5 min and 15 min, respectively.
The assay generates a “glow-type” luminescent signal, produced by the luciferase reaction. Briefly, after chemicals and strains were incubated for 24 h, 100 µL of the culture was taken from each well and mixed with the same volume of the BacTiter-Glo™ reagent in a white, opaque-walled microtiter plate. Control wells containing medium without cells were prepared to obtain a value for background luminescence. Cells without compound were used as an ATP-positive control. The microplates were further incubated under agitation for 7 min. Bioluminescence was recorded in a multi-detection microplate reader (BioTek Synergy 2 Multi-Mode Microplate Reader, BioTek Instruments, Winooski, VT, USA). In Figure 3, results were given as percentage of untreated control, which is set at 100%. Experiments were performed in triplicate and each sample was measured in four replicates.

C. albicans = test: ATP luminescence microbial cell viability assay; format: cell-based, Candida albicans; conditions: 24 h treatment, result in words
Protocol: as §3
The assay generates a “glow-type” luminescent signal, produced by the luciferase reaction. Briefly, after chemicals and strains were incubated for 24 h, 100 µL of the culture was taken from each well and mixed with the same volume of the BacTiter-Glo™ reagent in a white, opaque-walled microtiter plate. Control wells containing medium without cells were prepared to obtain a value for background luminescence. Cells without compound were used as an ATP-positive control. The microplates were further incubated under agitation for 7 min. Bioluminescence was recorded in a multi-detection microplate reader (BioTek Synergy 2 Multi-Mode Microplate Reader, BioTek Instruments, Winooski, VT, USA). […] Experiments were performed in triplicate and each sample was measured in four replicates.

[5] = tested on: A549 human lung adenocarcinoma cell line; test: MTT assay; format: cell-based; conditions: Homo sapiens, A549
Protocol: (§4) The anticancer effects of compounds 1–10 on A549 human lung adenocarcinoma (ATCC® CCL-185™), HepG2 human hepatocellular carcinoma (ATCC® HB-8065™), and C6 rat glioma (ATCC® CCL107™) cell lines were assessed using 3-(4,5-Dimethylthiazol-2-yl)-2,5-diphenyltetrazolium bromide (MTT) assay, whereas the selectivity of compounds 1–10 was tested using NIH/3T3 mouse embryonic fibroblast cell line (ATCC® CRL-1658™, London, UK). All cell lines were incubated according to the supplier’s recommendations. The cells were seeded as 1 × 10^4 cells into each well of the 96-well plates. MTT assay was performed as previously described. The compounds were tested between the concentrations equal to 1 mM and 0.000316 mM (1.0, 0.316, 0.10, 0.0316, 0.01, 0.00316, 0.001, 0.000316 mM). Stock solutions of compounds were prepared in dimethyl sulfoxide (DMSO) and further dilutions were made with fresh culture medium. The final DMSO concentration was under 1% [34] and cisplatin was used as a positive control. Inhibition % was calculated for each concentration according to the formula below, and IC50 values were determined by plotting a dose–response curve of inhibition % versus compound concentrations tested. All experiments were performed in quadruplicate.Inhibition % = 100 − [(ODtest compound − ODblank/ODsolvent control − ODblank)] × 100(1)

C6 rat glioma cell line = test: MTT assay; format: cell-based; conditions: Rattus norvegicus, C6
Protocol: as §4

[6] = tested on: HepG2 human hepatocellular carcinoma cell line; test: MTT assay; format: cell-based; conditions: Homo sapiens, HepG2
Protocol: as §4

[7] = tested on: NIH/3T3 mouse embryonic fibroblast cell line; test: MTT assay; format: cell-based; conditions: Mus musculus, NIH3T3, healthy cells for selectivity
Protocol: as §4

Cn1cccc1C(=O)C=Cc1ccc(-c2ccccc2[N+](=O)[O-])o1 [Compound 3, 1-(1-Methyl-1H-pyrrol-2-yl)-3-(5-(2-nitrophenyl)furan-2-yl)prop-2-en-1-one]
MIC (C. albicans (ATCC 90028)): 50 µg/mL (≈ 155 µM) | MIC (E. coli (ATCC 25922)): 100 µg/mL (≈ 310 µM) | MIC (E. faecalis (ATCC 29212) [1]): 100 µg/mL (≈ 310 µM) | MIC (E. faecalis (ATCC 51299)): 200 µg/mL (≈ 621 µM) | MIC [2]: 200 µg/mL (≈ 621 µM) | MIC (S. aureus (ATCC 25923)): 100 µg/mL (≈ 310 µM) | MIC (C. glabrata (ATCC 90030)): 100 µg/mL (≈ 310 µM) | MIC [3]: 50 µg/mL (≈ 155 µM) | MIC (C. krusei (ATCC 6258)): 100 µg/mL (≈ 310 µM) | antimicrobial activity in ATP bioluminescence assay (E. faecalis (ATCC 29212) [4]): sensitive | antifungal activity in ATP bioluminescence assay (C. albicans): no statistically significant effects | IC50 [5]: > 322 µg/mL | IC50 (C6 rat glioma cell line): > 322 µg/mL | IC50 [6]: 27 µg/mL (≈ 83.8 µM) | IC50 [7]: > 322 µg/mL | melting point: 94 to 95 °C

Reference: PMC6149822, “A New Series of Pyrrole-Based Chalcones: Synthesis and Evaluation of Antimicrobial Activity, Cytotoxicity, and Genotoxicity” (Molecules : A Journal of Synthetic Chemistry and Natural …, 2017)
